Marks after values point to notes of the source that are not given here.
Legend:
Type in all cases: in vivo, SD rats
[1] = tested on: gouty arthritis in rats (urate crystals, left ankle joint); experiment: Pharmacodynamics experiment A on gouty arthritis in rats: gait score; parameters: Gait Score: scale not given here; conditions: 0.6 mg/kg gavage; for Gait Score: Mean ± SEM
Description: (§1) Compounds 2, 17, 26 and 27 were prepared by grinding with 0.5% CMC-Na into a suspension of the corresponding concentration (0.06 mg/mL) for gavage before administration, and the volume of administration was 10 mL/kg. […] Before use, 0.5% CMC-Na was used for grinding and prepared into a suspension of the corresponding concentration (0.06 mg/mL) for gavage, and the volume of drug administered was 10 mL/kg.
(§2) Each group of subjects was prepared into a suspension of the corresponding concentration, and the administration volume was 10 mL/kg.
(§3) The crystalline arthritis model was prepared by intra-articular injection of urate crystals (40 mg/mL, in the left ankle joint of each rat). Different doses of the test drug were given separately by gavage administration. The day of administration was defined as day 1 of the experiment, and the drug was administered once a day for 10 consecutive days (pre-administration of the drug for 7 days prior to modeling, modeling on day 8, and continuation of the drug for 3 days). The experiment ended on day 10.
The degree of lameness of the modeled joints was observed and scored at the same time point.
(§4) The data obtained from the experiment were statistically analyzed using IBM SPSS Statistics 22.0. All measurements were expressed as Mean±S.E.M s. The data were analyzed using SPSS 22.0 statistical software and variance chi-square test was performed on the parameters.

[2] = tested on: TNF-α; experiment: Inflammatory factor experiment B: TNF-α in knee synovial tissue (ELISA)
[3] = tested on: gouty arthritis in rats (urate crystals, left ankle joint); experiment: Pharmacodynamics experiment A on gouty arthritis in rats: pain score; parameters: Pain score: scale not given here; conditions: 0.6 mg/kg gavage; for Pain score: Mean ± SEM
Description: as §1, §2, §3
The pain level was scored using the flexion and extension joint pain test scoring method at the same time point.
as §4

[4] = tested on: IL-6; experiment: Inflammatory factor experiment A: IL-6 in gouty arthritis rats; conditions: synovial tissue of knee joints; dose 0.6 mg/kg gavage; day 10
Description: Compounds 14, 17 and 26 were prepared by grinding with 0.5% CMC-Na before administration and into a suspension for gavage at the corresponding concentration (0.06 mg/mL), with a dosage volume of 10 mL/kg. Colchicine, purchased from Sun Chemical Technology (Shanghai) Co., Ltd. with batch no. 49ETRRAS, and was prepared by grinding with 0.5% CMC-Na before administration and into a suspension for gavage at the corresponding concentration (0.06 mg/mL), with a dosage volume of 10 mL/kg.
The compounds in each group were prepared into a suspension of the corresponding concentration, and the dosage volume was 10 mL/kg.
as §3, with “(40 mg/mL” for “(40 mg/mL,”, “test compounds” for “test drug”, “the compounds were” for “the drug was”, “10. […]” for “10.”

[5] = tested on: IL-6; experiment: Inflammatory factor experiment B: IL-6 in knee synovial tissue (ELISA)
[6] = tested on: gouty arthritis rats (sodium urate, right ankle and knee joint cavities); experiment: Pharmacodynamics experiment B on gouty arthritis rats: gait score; conditions: for Gait Score: mean
Procedure, shortened: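 Male SD rats (180-220 g) received test compounds by gavage as 0.5% CMC-Na suspensions, once daily for 7 days before modeling and for 3 days afterward. Gouty arthritis was induced by injecting 0.2 mL sodium urate solution into the right ankle and knee joint cavities. Gait was graded 0-3 using modified Coderre criteria, and group mean scores were compared with the model group by ANOVA-Dunnett T-test (P<0.05).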

[7] = time points after modeling, P<0.05 or P<0.01
[8] = compounds 0.6 mg/kg, colchicine 0.6 and 1.2 mg/kg

COc1cc2c(c(OC)c1OC)-c1ccc(OC)c(=O)cc1[C@@H](NC(C)=O)CC2 [colchicine, reference compound]
Gait versus model group, in words [1, 7]: improved the gait of rats at 2 h, 24 h, and 48 h after modeling
Gait Score ([1]; 2 h after modeling): 1.10 ± 0.10
Gait Score ([1]; 4 h after modeling): 1.10 ± 0.10
Gait Score ([1]; 8 h after modeling): 1.30 ± 0.15
Gait Score ([1]; 10 h after modeling): 1.30 ± 0.21
Gait Score ([1]; 24 h after modeling): 1.00 ± 0.00
Gait Score ([1]; 48 h after modeling): 1.00 ± 0.00
Gait Score ([1]; before modeling): 0.00 ± 0.00
inhibition in vivo at 0.6 mg/kg ([2]; Rattus norvegicus, po, synovial tissue of knee joints, 48 h after modeling, dose 0.6 mg/kg, read-out: TNF-α percentage decrease %): 58%
inhibition in vivo at 1.2 mg/kg ([2]; Rattus norvegicus, po, synovial tissue of knee joints, 48 h after modeling, dose 1.2 mg/kg (high dose group), read-out: TNF-α percentage decrease %): 52.5%
TNF-α level after modeling, in words [2, 8]: could reduce the TNF-αlevel
Pain versus model group, in words [3, 7]: improved the pain at 2 h, 8 h, 24 h, and 48 h
Pain score ([3]; 2 h after modeling): 3.30 ± 0.60
Pain score ([3]; 4 h after modeling): 2.90 ± 0.71
Pain score ([3]; 8 h after modeling): 3.20 ± 0.61
Pain score ([3]; 10 h after modeling): 2.60 ± 0.70
Pain score ([3]; 24 h after modeling): 1.40 ± 0.58
Pain score ([3]; 48 h after modeling): 0.80 ± 0.44
Pain score ([3]; before modeling): 0.00 ± 0.00
Decreased IL-6 percentage % [4]: 107.14%
inhibition in vivo at 0.6 mg/kg ([5]; Rattus norvegicus, po, synovial tissue of knee joints, 48 h after modeling, dose 0.6 mg/kg, read-out: IL-6 percentage decrease %): 83.5%
inhibition in vivo at 1.2 mg/kg ([5]; Rattus norvegicus, po, synovial tissue of knee joints, 48 h after modeling, dose 1.2 mg/kg (high dose group), read-out: IL-6 percentage decrease %): 96.3%
IL-6 level after modeling, in words [5, 8]: could reduce the IL-6 level
Gait Score ([6]; 2 h, dose 0.6 mg/kg gavage): 0
Gait Score ([6]; 2 h, dose 1.2 mg/kg gavage (high dose group)): 0
Gait Score ([6]; 4 h, dose 0.6 mg/kg gavage): 0.02*
Gait Score ([6]; 4 h, dose 1.2 mg/kg gavage (high dose group)): 0**
Gait Score ([6]; 8 h, dose 0.6 mg/kg gavage): 0.24*
Gait Score ([6]; 8 h, dose 1.2 mg/kg gavage (high dose group)): 0.1**
Gait Score ([6]; 10 h, dose 0.6 mg/kg gavage): 0.16**
Gait Score ([6]; 10 h, dose 1.2 mg/kg gavage (high dose group)): 0.18**
Gait Score ([6]; 24 h, dose 0.6 mg/kg gavage): 0.02*
Gait Score ([6]; 24 h, dose 1.2 mg/kg gavage (high dose group)): 0*
Gait Score ([6]; 48 h, dose 0.6 mg/kg gavage): 0.02
Gait Score ([6]; 48 h, dose 1.2 mg/kg gavage (high dose group)): 0
Gait versus model group, in words [6, 8]: significantly improved the gait of rats

Source: US20250129012A1, “ANTI-INFLAMMATORY AND ANALGESIC COMPOUNDS AND USE THEREOF” (JIANGSU ATOM BIOSCIENCE AND PHARMACEUTICAL CO., LTD., priority 2021, published 2025)
